Assay [1] concerns Gli1 and Gli2 in pancreatic CSCs. As to the kind of experiment: nuclear translocation of Gli1 and Gli2 (immunostaining). The class given is cell-based, human. To be noted: EGCG 40 or 60 μM, 24 h.
Experimental: Pancreatic CSCs were treated with or without EGCG (40 or 60 μM) for 24 h. At the end of incubation period, CSCs were fixed with paraformaldehyde, permeabilized with titron X100, and blocked with 5% normal goat serum. Cells were then treated with either anti-Gli1 or anti-Gli2 antibody, followed by secondary antibody plus DAPI. Stained cells were mounted and visualized under a fluorescence microscope. Blue fluorescence of DAPI was changed to red color for a better contrast.
For assay [2], the system named is Prostate CSCs. As to the kind of experiment: spheroid formation and cell viability in spheroids (trypan blue). The assay is classed as cell-based, human. As to conditions: 7 and 14 days, embelin 0-6 μM, rottlerin 0-2 μM. The procedure: (§1) In particular, embelin is shown to inhibit spheroid and colony formation, and induce caspase-3 and apoptosis. (A) Prostate CSCs were grown in CSC medium and treated with embelin (0-6 μM) for 7 days to obtain primary spheroids. At the end of incubation period, spheroids were collected, reseeded and treated with embelin for another week to obtain secondary spheroids. Cell viability in spheroids was measured by trypan blue assay at the end of 7 and 14 days. […] (B) Prostate CSCs were seeded in soft agar and treated with embelin (0-6 μM) for 21 days. […] (C and D) Activation of caspase-3 and induction of apoptosis is shown.
(§2) (A) Prostate CSCs were grown in CSC medium and treated with rottlerin (0-2 μM) for 7 days to obtain primary spheroids. At the end of incubation period, spheroids were collected, reseeded and treated with rottlerin for another week to obtain secondary spheroids. Cell viability in spheroids was measured by trypan blue assay at the end of 7 and 14 days. […] (B) Prostate CSCs were seeded in soft agar and treated with rottlerin (0-2 μM) for 21 days. […] (C and D) Activation of caspase-3 and induction of apoptosis.
The effects of embelin on growth of prostate CSCs was studied by measuring cell viability and colony formation, as shown in FIGS. 9A and 9B. […]

For assay [3], the system named is Prostate CSCs. As to the kind of experiment: caspase-3 activity. The assay is classed as cell-based, human. To be noted: 24 h; embelin 0-6 μM, rottlerin 0-2 μM. The method, then:
as §1, §2

For assay [4], the system named is Prostate CSCs. As to the kind of experiment: apoptosis. As to conditions: embelin 0-6 μM 48 h; rottlerin 0-2 μM 24 h. The class given is cell-based, human. The method, then:
as §1, §2

Assay [5] has as its system Gli1 and Gli2 in prostate CSCs. As to the kind of experiment: immunofluorescence analysis of Gli1 and Gli2 expression. The class given is cell-based, human. To be noted: measured by IFC. The method, then: FIG. 17 graphs showing the regulation of Shh, Notch and TGFβ pathways by rottlerin. […] The expression of Patched-1, Patched-2, SMO, Gli1 and Gli2 was measured by qRT-PCR. […] Data were normalized with GAPDH. (D) Prostate CSCs were treated with rottlerin (0-1 μM) for 24 h. The expression of Notch1, Notch3 and JAG1 was measured by qRT-PCR. (E) TCF/LEF-1, Gli and Notch reporter activities. Prostate CSCs were transduced with a mixture of TCF/LEF1-, Gli-, or Notch-responsive firefly luciferase construct and Renilla luciferase construct (40:1) along with lipofectamine. After transduction, medium was changed and CSCs were treated with rottlerin (0-2 μM) for 24 h. […] (F) Immunofluorescence analysis of Gli1 and Gli2 expression in prostate CSCs. Green=Gli1 or Gli2; red=nucleus.

Assay [6] concerns Brain CSCs. As to the kind of experiment: cell viability by XTT assay. The assay is classed as cell-based. As to conditions: 3 days; 0-20 μM. The method, then:
(A-B) Brain CSCs were treated with sulforaphane (0-20 μM), and honokiol (0-20 μM) for 3 days, and cell viability was measured by XTT assay.
In general terms: Tetrazolium dyes change colour on reduction, which living cells bring about.

Assay [7] deals with Pancreatic CSCs. As to conditions: NOD/SCID/IL2R gamma mice, 20 mg/kg, 6 weeks. The method, then: (A) Pancreatic CSCs were orthotopically implanted in pancreas of NSG mice, and treated with or without sulforaphane 20 mg/kg, for 6 weeks, (B and C) Pancreatic CSCs were xenografted sub-cutaneously in NSG mice, and treated with or without rottlerin and embelin 20 mg/kg, for 6 weeks, (D and E) Prostate CSCs were xenografted sub-cutaneously in NSG mice, and treated with or without rottlerin and embelin 20 mg/kg, for 6 weeks. At the end of the treatment, weights of tumors in treated mice were compared with control mice.

As for `O=C(O[C@@H]1Cc2c(O)cc(O)cc2O[C@@H]1c1cc(O)c(O)c(O)c1)c1cc(O)c(O)c(O)c1` [EGCG, epigallocatechin gallate], in assay [1], the “nuclear expression of Gli1 protein” value is “inhibited the nuclear expression” and the “nuclear expression of Gli2 protein” value was “inhibited the nuclear expression”.
On to `CC(=O)c1c(O)c(C)c(O)c(Cc2c(O)c3c(c(C(=O)/C=C/c4ccccc4)c2O)OC(C)(C)C=C3)c1O` [rottlerin], for which the “size of primary and secondary spheroids in suspension” value in assay [2] (data not shown) is reported as “inhibited the size”. Besides, in assay [2] (primary and secondary spheroids, trypan blue), the “cell viability in spheroids” value is on record as “inhibited”. For the same molecule, in assay [3], the caspase-3 activity entry is given as “induces”. For the same molecule, the apoptosis result in assay [4] is recorded as “induces”. In addition, in assay [5], the “nuclear expression of constitutively active Gli1” value is “inhibited the nuclear expression” and the “nuclear expression of constitutively active Gli2” value is “inhibited the nuclear expression”.
Consider `C[S+]([O-])CCCCN=C=S` (stereo not shown) [sulforaphane], for which the cell viability result in assay [6] is on record as “inhibit cell viability”. Further, the “tumor growth (weights of tumors vs control mice)” value in assay [7] is recorded as “inhibit tumor growth”.
